Test results reported in PubChem BioAssay (NCI).
“And” between values parts separate entries of the source, which are not always exact repeats. Identical values can stand only once.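 Briefly, cells in 96-well plates were exposed to five compound concentrations for 48 h, and endpoints were estimated by linear interpolation. The concentration for 50% growth inhibition is given as GI50. Definition used: TGI = concentration required for complete inhibition of growth.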

Key:
Assay in all cases: DTP human tumour cell line panel, 48 h
COLO 205 colon = system: COLO 205 colon
HCT-15 colon = system: HCT-15 colon
UACC-62 melanoma = system: UACC-62 melanoma
HL-60(TB) leukemia = system: HL-60(TB) leukemia
KM12 colon = system: KM12 colon
ACHN renal = system: ACHN renal
SN12C renal = system: SN12C renal
SF-539 CNS = system: SF-539 CNS
MDA-MB-435 = system: MDA-MB-435
OVCAR-5 ovarian = system: OVCAR-5 ovarian

Structure (SMILES) | GI50 (COLO 205 colon) | TGI (COLO 205 colon) | TGI (HCT-15 colon) | TGI (UACC-62 melanoma) | GI50 (HL-60(TB) leukemia) | TGI (HL-60(TB) leukemia) | TGI (KM12 colon) | GI50 (ACHN renal) | TGI (ACHN renal) | GI50 (SN12C renal) | TGI (SN12C renal) | TGI (SF-539 CNS) | TGI (MDA-MB-435) | TGI (OVCAR-5 ovarian) | GI50 (HCT-15 colon) | GI50 (UACC-62 melanoma) | GI50 (KM12 colon) | GI50 (SF-539 CNS) | GI50 (MDA-MB-435) | GI50 (OVCAR-5 ovarian)
CC(O)C(NC(=O)C(CS)NC(=O)C(CO)NC(=O)C(CCCCN)NC(=O)C(Cc1c[nH]c2ccccc12)NC(=O)C(Cc1ccc(O)cc1)NC(=O)C(CS)NC(=O)C(N)Cc1ccccc1)C(N)=O (centres undefined) | 20.7 µM | > 25 µM and 66.2 µM | > 25 µM and 56.2 µM | > 25 µM and 57.8 µM | 21.5 µM | > 25 µM and 40.5 µM | > 25 µM and 58 µM | 20.5 µM | > 25 µM and 44.5 µM | 28.6 µM | > 25 µM and 84.2 µM | > 25 µM and 68.9 µM | > 25 µM | > 25 µM | – | – | – | – | – | –
OC1CCC(Oc2cccc3cnc(Nc4ccc5nc[nH]c5c4)nc23)CC1 (centres undefined) | 0.21 µM | 0.886 µM | 16.7 µM | 7.26 µM | 0.155 µM | 0.447 µM | 11.9 µM | 0.313 µM | > 100 µM | 0.392 µM | 72.7 µM | 0.708 µM | 12.1 µM | 30.7 µM | 0.508 µM | 0.573 µM | 0.23 µM | 0.215 µM | 0.612 µM | 0.327 µM
CN(C)CCNC(=O)c1cccc(CO)c1[N+](=O)[O-] | – | > 100 µM | > 100 µM | > 100 µM | – | > 100 µM | > 100 µM | – | > 100 µM | – | > 100 µM | > 100 µM | > 100 µM | > 100 µM | – | – | – | – | – | –
OCCCNCc1ccccn1 | – | > 100 µM | > 100 µM | > 100 µM | – | > 100 µM | > 100 µM | – | > 100 µM | – | > 100 µM | > 100 µM | > 100 µM | > 100 µM | – | – | – | – | – | –
ClCCn1cnc2c(SCc3ccccc3)ncnc21 | 1.79 µM | > 100 µM | > 100 µM | > 100 µM | 4.68 µM | 68.3 µM | > 100 µM | 4.99 µM | > 100 µM | 8.54 µM | > 100 µM | > 100 µM | > 100 µM | > 100 µM | 0.334 µM | 6.65 µM | 1.04 µM | 8.77 µM | 3.47 µM | > 100 µM
CC1=CC[C@@H]2C(C)(C)[C@@H](O)CC[C@@]2(C)[C@@H]1COc1ccc2ccc(=O)oc2c1 | 5.35 µM | 23.6 µM | 15.8 µM | 14.5 µM | 3.27 µM | 14 µM | 15.7 µM | 5.11 µM | 19.6 µM | 4.77 µM | 22.7 µM | 28.5 µM | 23.9 µM | 42.3 µM | 3.6 µM | 3.52 µM | 4.18 µM | 12.3 µM | 10.3 µM | 16.6 µM
CN(C)CCNc1cccc2sc3ccc(O)cc3c(=O)c12 | 3.92 µM | 15.3 µM | 5.09 µM | 2.87 µM | 1.53 µM | 3.74 µM | 14.3 µM | 1.43 µM | 3.78 µM | 2.54 µM | 13.6 µM | 4.01 µM | 3.16 µM | 22.8 µM | 1.43 µM | 1.43 µM | 3.22 µM | 1.77 µM | 1.49 µM | 7.32 µM
Cc1ccc(S(=O)(=O)NCCN2c3nc4ccccc4cc3Sc3cc4ccccc4nc32)cc1 | > 100 µM | > 100 µM | > 100 µM | 51.4 µM | > 100 µM | > 100 µM | > 100 µM | 8.42 µM | > 100 µM | > 100 µM | > 100 µM | 20.5 µM | > 100 µM | > 100 µM | > 100 µM | 11.4 µM | > 100 µM | 4.79 µM | > 100 µM | > 100 µM
CCN(CC)CC(C)Nc1ccc(C)c2sc3ccccc3c(=O)c12 (centres undefined) | 1.68 µM | 3.77 µM | 14.7 µM | 3.98 µM | 1.62 µM | 5.24 µM | 16.9 µM | 3.88 µM | 15.1 µM | 6.77 µM | 21 µM | 12.7 µM | 11.9 µM | 12.4 µM | 3.39 µM | 1.82 µM | 4.71 µM | 3.2 µM | 3.37 µM | 2.95 µM
CCOC(=O)/C=C/c1ccc(C(=O)OCC)[nH]1 | 2.82 µM | 8.38 µM | > 100 µM | > 100 µM | 1.62 µM | 9.89 µM | 92.6 µM | 6.88 µM | > 100 µM | 5.11 µM | > 100 µM | 42.5 µM | 2.29 µM | > 100 µM | 3.11 µM | 5.23 µM | 0.601 µM | 5.91 µM | 0.393 µM | 19.5 µM
Cn1cnc([N+](=O)[O-])c1Sc1ncnc2nc[nH]c12 | 11.6 µM and 19.9 µM | 65.1 µM and > 100 µM | > 100 µM | > 100 µM | 11 µM and 16.9 µM | 71 µM and > 64.7 µM | > 100 µM | 38.1 µM and 41.7 µM | > 100 µM | 20.5 µM and 36.4 µM | > 100 µM | > 100 µM | > 100 µM | > 100 µM | 14.2 µM and 19.6 µM | 2.54 µM and 3.4 µM | 4.25 µM and 10.8 µM | 4.81 µM and 3.26 µM | 2.68 µM and 4.37 µM | 8.42 µM and 53.2 µM
